# Results: EP1655608A1, “CFTR as a component of an autophagy signaling pathway, applications thereof to autophagic diseases, and determination of cystic fibrosis as an autophagic disease” (priority 2004, dated 2006)
# Legend:
# Sertoli 42GPA9 cells = test: Autophagic vacuolation of Sertoli cells (light, electron and confocal microscopy); type: cell-based, mouse; conditions: for effect on Lindane-induced vacuolation: pretreatment 90 min before Lindane 50 µM, 3 MA 30 mM, BafA1 100 nM, NPPB 25 µM; for effect on Lindane-preformed vacuoles: added after vacuole formation; for induction of vacuolation / autophagy by the chemical alone: Lindane 50 µM, DDT 1.8 µM, Bϕ 90 µM, PCP 15 µM, SB203580 10 µM, NH4Cl 5 mM
# Procedure: Autophagy was induced either by starvation or by treatment with Lindane under nutrient-rich condition.
# (§1) When bafilomycin A1 (BafA1, V-ATPase-specific inhibitor, 100 nM, Sigma); Park Davis Inhibitor PD98059 (MEK1-specific inhibitor, 10 µM, Cell Signaling), H89 (PKA inhibitor, 5 µM, Calbiochem), 3-Methyladenine (3 MA, autophagy-specific inhibitor, 10-30 mM, Sigma) or NPPB [5-nitro-2-(3-phenylpropylamino) benzoic acid, Cl^- channel blocker, 25 µM, Sigma] was used, it was added to the starvation medium for 90 min, prior to Lindane addition or nutrient deprivation.
# The ultrastructural changes caused by Lindane or starvation in Sertoli and renal cells were analysed by transmission electron microscopy, as previously described (57). […] Cell pellets were then rinsed in cacodylate buffer, postfixed in 1% OsO4 for 1 h at 4°C, dehydrated through graded ethanol washes, and embedded in epoxy resin. Oriented […] sections were obtained with diamond knives, and representative areas were chosen for ultra-thin sectioning. […] 30-50 micrographs were taken randomly from each sample at primary magnification × 10,000.
# Sertoli cells seeded on glass coverslips were transiently transfected with EGFP-Rab7 or MEK1^+-HA expression plasmids using Fugene 6 reagent (Roche), washed and allowed to recover overnight before addition of Lindane (50 µM). […] To determine the pH of the Lindane-induced vacuoles, living cells were stained with acridine-orange (5 µg/ml, Sigma), a membrane-permeable weak base whose fluorescence shifts from green at neutral pH to red in acidic compartments (59). 10 min later, cells were washed and directly observed under a confocal microscope.
# CFTR^-/- cells = test: Starvation-induced autophagic death of CFTR-/- renal cells; type: cell-based, mouse; conditions: nutrient-free medium
# Procedure: (§2) For nutrient deprivation, cells were washed with DMEM and first starved in minimal medium lacking serum for 90 min. Cells were then washed again with PBS and deprived for up to 16 h in nutrient-free medium lacking amino acids, vitamins, and serum (HBSS, 0.1% BSA, 20 mM HEPES, Sigma #H8264). As controls, cells were incubated in this nutrient-free medium supplemented with a mixture of non essential amino acids (0.1 mM, GIBCO, #11140-035).
# Sertoli cell = conditions: reported, ref (84); cited from earlier work
# p42^ERK2 and p44^ERK1 = test: ERK activation by anti-phospho-ERK Western blotting of cell lysates; type: cell-based, mouse; conditions: for ERK activation in Sertoli cells: Lindane 50 µM, DDT 1.8 µM, Bϕ 90 µM, PCP 15 µM; for effect on Lindane-induced ERK activation: pretreatment, PD98059 10 µM, NPPB 25 µM, 90 min
# Text: (§3) After stripping, equal loadings of proteins were verified by reprobing the blots with anti-ERK1 (Santa Cruz Biotechnology).
# PKA = test: CREB phosphorylation as readout of PKA activity; type: cell-based; conditions: H89
# Text: The emerging issue is therefore how Lindane could activate CFTR Cl^- currents. One possibility would be that Lindane directly activates CFTR, but this appears unlikely because it required minutes instead of seconds to increase Cl^- conductance. […] To further explore this hypothesis, we tested the effect of Lindane on the renal proximal cell line (PCT1). […] Of particular interest, we provide several lines of evidence that the CFTR Δex10 channels remained functional in response to Lindane in PCT cells. […] These finding provide the first evidence that an agonist, e.g. Lindane, could activate CFTR Cl- current independently of PKA, raising the promise for new strategies using Lindane to restore Cl-conductance in cystic fibrosis patients with CFTR variants on PKA sites.
# CFTR Cl^- channels = CFTR Cl^- channels (Homo sapiens, UniProt P13569); conditions: NPPB 0.1 mM, glibenclamide 0.1 mM, external DIDS 1 mM; review (41); cited from earlier work
# Chain of CFTR Cl^- channels (P13569 whole entry): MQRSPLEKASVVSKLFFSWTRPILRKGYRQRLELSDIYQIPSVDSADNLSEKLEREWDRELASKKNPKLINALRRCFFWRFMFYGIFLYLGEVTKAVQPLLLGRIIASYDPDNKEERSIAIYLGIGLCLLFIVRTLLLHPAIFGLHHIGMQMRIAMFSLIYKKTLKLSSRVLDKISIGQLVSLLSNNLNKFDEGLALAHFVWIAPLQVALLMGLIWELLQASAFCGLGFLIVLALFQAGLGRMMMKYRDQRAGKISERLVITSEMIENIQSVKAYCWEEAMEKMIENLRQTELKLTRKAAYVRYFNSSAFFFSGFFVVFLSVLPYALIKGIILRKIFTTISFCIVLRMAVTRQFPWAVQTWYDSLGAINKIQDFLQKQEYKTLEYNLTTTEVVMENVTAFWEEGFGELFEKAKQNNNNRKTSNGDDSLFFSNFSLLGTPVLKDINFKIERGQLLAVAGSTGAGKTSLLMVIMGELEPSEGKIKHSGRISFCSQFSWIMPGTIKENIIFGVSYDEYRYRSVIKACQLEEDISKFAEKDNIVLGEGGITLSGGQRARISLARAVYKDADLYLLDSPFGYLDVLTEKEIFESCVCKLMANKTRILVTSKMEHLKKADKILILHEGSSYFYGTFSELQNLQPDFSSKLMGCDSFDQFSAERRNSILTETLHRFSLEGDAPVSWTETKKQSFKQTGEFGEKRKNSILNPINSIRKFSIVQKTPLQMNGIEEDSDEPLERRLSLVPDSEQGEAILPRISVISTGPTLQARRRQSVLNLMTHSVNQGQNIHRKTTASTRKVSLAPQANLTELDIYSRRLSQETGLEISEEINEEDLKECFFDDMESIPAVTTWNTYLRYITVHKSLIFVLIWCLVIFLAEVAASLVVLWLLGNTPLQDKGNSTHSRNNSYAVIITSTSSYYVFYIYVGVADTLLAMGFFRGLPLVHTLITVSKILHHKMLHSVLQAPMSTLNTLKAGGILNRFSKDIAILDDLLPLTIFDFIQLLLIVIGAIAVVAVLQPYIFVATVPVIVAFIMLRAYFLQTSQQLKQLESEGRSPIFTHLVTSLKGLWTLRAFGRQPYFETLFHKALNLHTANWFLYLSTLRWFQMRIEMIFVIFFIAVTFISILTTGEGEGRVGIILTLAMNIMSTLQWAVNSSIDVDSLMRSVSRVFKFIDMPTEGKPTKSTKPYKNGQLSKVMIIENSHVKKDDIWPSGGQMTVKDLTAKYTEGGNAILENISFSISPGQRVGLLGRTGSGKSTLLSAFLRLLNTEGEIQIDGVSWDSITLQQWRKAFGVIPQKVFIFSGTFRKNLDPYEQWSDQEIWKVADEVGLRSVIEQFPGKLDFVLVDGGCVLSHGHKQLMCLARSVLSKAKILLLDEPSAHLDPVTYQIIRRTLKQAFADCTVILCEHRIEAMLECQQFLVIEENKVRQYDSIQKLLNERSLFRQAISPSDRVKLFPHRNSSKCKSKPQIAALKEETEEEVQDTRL
# CFTR^+/+ cells = test: Starvation-induced autophagic death of CFTR+/+ renal cells; type: cell-based, mouse; conditions: 16 hours nutrient deprivation
# Procedure: as §2, §1
# CFTR Cl^- channel = CFTR Cl^- channel (Mus musculus, UniProt P26361); test: Whole-cell patch-clamp Cl- currents in Sertoli cells; type: cell-based; set-up: endogenous in cells; host or cells: Sertoli 42GPA9 cell line (mouse)
# Chain of CFTR Cl^- channel (P26361 whole entry): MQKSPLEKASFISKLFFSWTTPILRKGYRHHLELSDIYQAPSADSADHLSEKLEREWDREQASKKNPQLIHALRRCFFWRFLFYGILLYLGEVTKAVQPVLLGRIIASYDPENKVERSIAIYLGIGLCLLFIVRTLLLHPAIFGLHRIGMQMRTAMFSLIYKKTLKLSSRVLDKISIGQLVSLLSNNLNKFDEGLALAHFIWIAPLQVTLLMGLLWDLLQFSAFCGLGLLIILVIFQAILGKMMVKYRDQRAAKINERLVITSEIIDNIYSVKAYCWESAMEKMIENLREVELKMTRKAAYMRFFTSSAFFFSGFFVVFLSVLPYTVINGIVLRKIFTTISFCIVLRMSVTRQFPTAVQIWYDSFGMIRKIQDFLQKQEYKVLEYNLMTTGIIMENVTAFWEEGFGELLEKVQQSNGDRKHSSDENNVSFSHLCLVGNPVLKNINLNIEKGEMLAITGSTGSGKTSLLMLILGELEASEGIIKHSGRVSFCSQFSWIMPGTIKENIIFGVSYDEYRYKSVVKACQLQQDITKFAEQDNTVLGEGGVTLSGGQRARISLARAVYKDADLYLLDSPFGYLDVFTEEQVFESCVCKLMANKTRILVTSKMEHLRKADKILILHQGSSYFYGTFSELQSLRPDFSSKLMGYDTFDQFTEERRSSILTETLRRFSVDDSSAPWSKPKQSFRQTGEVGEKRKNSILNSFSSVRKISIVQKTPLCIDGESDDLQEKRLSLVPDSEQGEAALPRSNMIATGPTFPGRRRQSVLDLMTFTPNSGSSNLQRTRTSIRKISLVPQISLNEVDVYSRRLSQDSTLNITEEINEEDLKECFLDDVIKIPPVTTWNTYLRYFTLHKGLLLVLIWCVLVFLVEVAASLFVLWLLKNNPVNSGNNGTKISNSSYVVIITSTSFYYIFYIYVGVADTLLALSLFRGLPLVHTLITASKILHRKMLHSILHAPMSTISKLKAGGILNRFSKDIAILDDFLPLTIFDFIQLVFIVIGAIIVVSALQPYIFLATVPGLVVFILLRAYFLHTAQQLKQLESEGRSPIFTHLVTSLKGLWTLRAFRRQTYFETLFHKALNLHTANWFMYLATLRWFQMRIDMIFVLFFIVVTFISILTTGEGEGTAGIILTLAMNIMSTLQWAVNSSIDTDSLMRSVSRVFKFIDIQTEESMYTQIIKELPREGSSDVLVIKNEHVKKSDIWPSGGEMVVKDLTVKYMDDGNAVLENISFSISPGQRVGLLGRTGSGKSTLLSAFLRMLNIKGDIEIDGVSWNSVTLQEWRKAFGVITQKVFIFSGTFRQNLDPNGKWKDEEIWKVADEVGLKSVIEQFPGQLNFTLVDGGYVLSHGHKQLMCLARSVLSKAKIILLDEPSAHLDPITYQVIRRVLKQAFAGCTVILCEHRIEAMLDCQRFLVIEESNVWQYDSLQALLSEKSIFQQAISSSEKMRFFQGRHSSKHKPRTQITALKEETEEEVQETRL
# Procedure: Whole cell currents were monitored from Sertoli cells, CFTR^-/- and WT renal epithelial cells with an RK 400 amplifier (Biologic, Münster, Germany) as previously described (40). The bath (extracellular) solution consisted of 140 mM NMDGCl (N-methyl-D-glucamine chloride), 5 mM D-Glucose, 1 mM CaCl2, and 10 mM HEPES, pH 7.4. Patch pipette (intracellular) solution contained 140 mM NMDGCl, 5 mM D-Glucose, 5 mM EGTA, 5 mM MgATP, and 10 mM HEPES, pH 7.4. Osmolarity of both solutions was adjusted to 280 mOSM by adding mannitol. These solutions were designed to study Cl^- currents because Cl^- is the sole permeant ion in these conditions and to prevent Ca^2+ activated Cl^- currents by the addition of EGTA in the patch solution. After establishment of whole cell configuration, cells were stimulated by the addition of Lindane (50 µM), FSK (10 µM), vehicle (Me2S0 or ethanol) in the absence or the presence of NPPB (0.1mM), DIDS (4,4'-diisothiocyanatostilbene-2,2'-disulfonic acid, 1 mM, Sigma), glibenclamide (0.1mM, Sigma) or PD98059 (10 µM) in the bath solution. The cell membrane potential was clamped at -50mV and 400 ms pulses were applied from -100 to +120 mV with increments of 20 mV every 2 s. To generate whole cell current-voltage (I-V) relationship, membrane currents resulting from voltage stimuli were recorded for at least 3 min and analysed using an IBM-AT-compatible computer equipped with Digidata 1200 interface (Axon Instruments) and pCLAMP software (versions 5.51 and 6.0, Axon Instruments), respectively. Statistics-Results are expressed as mean ± S.E. of n observations using the Student's t test.
# p38 = p38 / Jun kinase activation by Western blotting of Sertoli cell lysates; type: cell-based, mouse; conditions: Sertoli cell lysates treated for 15 min
# Text: as §3
compound,measurement,setting,value
"Cn1cnc(N)c2ncnc1-2 [3 MA, 3-Methyladenine]",effect on Lindane-induced vacuolation,"Sertoli 42GPA9 cells; 24 h, PD98059 10 µM",dramatically reduced
same,effect on starvation-induced death of CFTR^-/- cells,CFTR^-/- cells,arrested starvation-induced cell death
"CO/C1=C\C(C)=C\[C@@H](C)[C@@H](O)[C@@H](C)C/C(C)=C/C=C/[C@H](OC)[C@@H]([C@@H](C)[C@@H](O)[C@H](C)[C@@]2(O)C[C@@H](O)[C@H](C)[C@@H](C(C)C)O2)OC1=O [BafA1, bafilomycin A1]",effect on Lindane-preformed vacuoles,Sertoli 42GPA9 cells,collapsed Lindane-preformed vacuoles
same,effect on Lindane-induced vacuolation,"Sertoli 42GPA9 cells; 24 h, PD98059 10 µM",prevented their formation
Clc1ccc(C(c2ccc(Cl)cc2)C(Cl)(Cl)Cl)cc1 [DDT],Sertoli cell vacuolation in vivo,Sertoli cell,reported to promote Sertoli cell vacuolation
same,induction of vacuolation / autophagy by the chemical alone,Sertoli 42GPA9 cells; 24 h,induced vacuolation
same,ERK activation in Sertoli cells,p42^ERK2 and p44^ERK1,induced the activation of both p42^ERK2 and p44^ERK1
O=S(=O)(NCCNCC=Cc1ccc(Br)cc1)c1cccc2cnccc12 [H89],effect on Lindane-induced CREB phosphorylation,PKA,failed to counteract Lindane-induced CREB phosphorylation
Cl.N [NH4Cl],induction of vacuolation / autophagy by the chemical alone,Sertoli 42GPA9 cells; 24 h,did not alter cell morphology
same,effect on toxicant-induced vacuole development,Sertoli 42GPA9 cells; NH4Cl 5 mM added to medium,accelerated toxicant-induced vacuole development
"O=C(O)c1cc([N+](=O)[O-])ccc1NCCCc1ccccc1 [NPPB, 5-nitro-2-(3-phenylpropylamino) benzoic acid]",effect on Lindane-preformed vacuoles,Sertoli 42GPA9 cells,collapsed Lindane-preformed vacuoles
same,effect on Lindane-induced vacuolation,"Sertoli 42GPA9 cells; 24 h, PD98059 10 µM",abrogated Lindane-induced vacuolation
same,effect on Lindane-induced ERK activation,p42^ERK2 and p44^ERK1,still stimulated
same,sensitivity of CFTR Cl^- channels to blocker,CFTR Cl^- channels,sensitive
same,outcome of CFTR^+/+ cells under nutrient deprivation in the presence of inhibitor,CFTR^+/+ cells,cell death
COc1cccc(-c2cc(=O)c3ccccc3o2)c1N [PD98059],ultrastructure in the presence of inhibitor plus Lindane,"Sertoli 42GPA9 cells; PD98059 10 µM + Lindane, electron microscopy",dramatic accumulation of lamellar structures
same,effect on chloroquine-induced vacuolation,"Sertoli 42GPA9 cells; chloroquine 500 µM, 24 h, PD98059 10 µM",did not affect chloroquine-induced vacuolation
same,effect on Lindane-induced vacuolation,"Sertoli 42GPA9 cells; 24 h, PD98059 10 µM",abrogated Lindane-induced vacuolation
same,effect on Lindane-induced ERK activation,p42^ERK2 and p44^ERK1,drastically reduced the ability of Lindane to activate ERK
same,effect on Lindane-induced CFTR Cl- conductance,CFTR Cl^- channel; PD98059 10 µM + Lindane,dramatically reduced
same,whole-cell I-V relationship with inhibitor alone,CFTR Cl^- channel; PD98059 alone,identical to control I-V
same,outcome of CFTR^+/+ cells under nutrient deprivation in the presence of inhibitor,CFTR^+/+ cells,cell death
Oc1c(Cl)c(Cl)c(Cl)c(Cl)c1Cl [Pentachlorophenol],Sertoli cell vacuolation in vivo,Sertoli cell,does not
same,induction of vacuolation / autophagy by the chemical alone,Sertoli 42GPA9 cells; 24 h,no vacuolation was observed
same,p38 activation,p38,concomitantly activated p38
same,ERK activation in Sertoli cells,p42^ERK2 and p44^ERK1,strong activator of ERK1/2
COc1ccc(Cl)cc1C(=O)NCCc1ccc(S(=O)(=O)NC(=O)NC2CCCCC2)cc1 [glibenclamide],sensitivity of CFTR Cl^- channels to blocker,CFTR Cl^- channels,sensitive
biphenol A,induction of vacuolation / autophagy by the chemical alone,Sertoli 42GPA9 cells; 24 h,induced vacuolation
same,ERK activation in Sertoli cells,p42^ERK2 and p44^ERK1,induced the activation of both p42^ERK2 and p44^ERK1
